This note sets out measurements from US20220259212A1, “INHIBITORS OF INDOLEAMINE 2,3-DIOXYGENASE AND/OR TRYPTOPHAN 2,3-DIOXYGENASE” (Idorsia Pharmaceuticals Ltd, priority 2019, published 2022).

The target of one assay is T1, IDO1 in SKOV3 cells (Homo sapiens, UniProt P14902).
T1 construct: SKOV3 cells (NCI, No. 0503405) which upregulate IDO1 after stimulation with IFNγ; host or cells: SKOV3 cells stimulated with IFNγ
Put plainly: Cell-based IDO inhibitory activity in IFNγ-stimulated SKOV3 cells (NFK + kynurenine by LCMS). The note with it: IFNγ 50 ng/ml, 200 uM L-tryptophan, 24 hours. The text has this: 3) Testing Compounds for IDO/TDO Inhibitory Activity and Toxicity in Cell-Based Assays
SW48 cells (ATCC, CCL-231) are used to measure compounds for TDO inhibitory activity and are routinely maintained in DMEM high glucose/GlutaMAX™/pyruvate 90% (v/v), FCS 10% (v/v), Penicilin/streptomycin 1% (v/v). SKOV3 cells (NCI, No. 0503405) which upregulate IDO1 after stimulation with IFNγ are used to measure compounds for IDO inhibitory activity. SKOV3 cells are routinely maintained in RPMI 90% (v/v), FCS 10% (v/v), Penicilin/streptomycin 1% (v/v). SW48 or SKOV3 cells are seeded in 384 well plates at a density of 8000 cells in 45 ul per well or 4000 cells in 45 ul per well, respectively. Plates are incubated at 37° C./5% CO2 for 24 hours. On the next day, 10 ul compound in serial dilutions (tested concentration range 10 uM-40 nM) and 200 uM L-tryptophan are added (SKV03 receive in addition IFNγ at a final concentration of 50 ng/ml). After 24 hours of incubation at 37° C./5% CO2, 3 ul of the supernatant per well is transferred to 25 ul H2O per well in a 384 deep well plate and 25 ul of the supernatant per well is transferred to waste. The SKOV3 and SW48 cell plates with 25 ul supernatant per well remaining are used to measure viability (see below). The 384 deep well plate containing 3 ul supernatant and 25 ul H2O per well are further processed for LCMS: After the addition of 100 ul L-tryptophan-(indole-d5) (Sigma 615862) at 200 nM in methanol, the 384 deep well plates are centrifuged for 10 minutes at 3220×g at 4° C., 75 ul H2O is added per well and plates centrifuged again for 10 minutes at 3220×g at 4° C. N-formylkynurenine and kynurenine are quantified by LCMS, normalized to the internal standard L-tryptophan-(indole-d5) and the sum is calculated. Samples with 0.2% DMSO (0% effect) and a TDO/IDO inhibitor (100% effect) are used as control samples to set the parameters for the non-linear regression necessary for the determination of the IC50 for each compound. For each compound concentration the percentage of activity compared to 0% and 100% effect is calculated as average±STDEV (each concentration measured in duplicate). IC50 values and curves are generated with XLfit software (IDBS) using Dose-Response One Site model 203. The calculated IC50 values may fluctuate depending on the daily cellular assay performance. Fluctuations of this kind are known to those skilled in the art. When compounds are measured multiple times, mean values are given.

Assay [1] addresses T2, Recombinant full-length human IDO1 (Homo sapiens, UniProt P14902).
T2 construct: Recombinant full-length human IDO1 with a N-terminal hexahistidine tag; hexahistidine (N); made in house; host or cells: E. coli
Put plainly: IDO1 enzymatic assay (NFK quantified by LCMS). In kind it is biochemical. The note with it: 2 nM enzyme, 5 μM L-tryptophan, 30 min pre-incubation, pH6.5; mean if measured multiple times; read-out: hIDO activity (IC50 in nM). The protocol:
1) Testing Compounds for IDO Inhibitory Activity in an IDO1 Enzymatic Assay:
Recombinant full-length human IDO1 with a N-terminal hexahistidine tag expressed in E. coli and purified to homogeneity is incubated at a final concentration of 2 nM in assay buffer consisting of 37.5 mM phosphate buffer at pH6.5 supplemented with 10 mM ascorbic acid, 0.45 μM methylene blue, 50 U/ml catalase, 0.01% BSA, and 0.01% Tween 20 (protocol modified from Seegers et al, JBS 2014). Example compounds are serially diluted in DMSO, further diluted in phosphate buffer, and added to the enzyme at final concentrations ranging from 10 μM to 0.5 nM. The final DMSO concentration is 0.6%. Following a pre-incubation of 30 minutes at RT, the reaction is started by the addition of L-tryptophan at a final concentration of 5 μM in assay buffer. After 30 minutes of incubation at RT, 3 μL of the 20 μl reaction mixture are transferred to a 384 deep well plate containing 25 μL of deionized water. 100 μl of 200 nM L-Tryptophan-(indole-d5) in cold 100% methanol are added followed by a 10 minutes centrifugation at 3220×g at 4° C. An additional 75 μL of deionized water are then added followed by a 10 minutes centrifugation at 3220×g at 4° C. The product of the reaction N′-Formylkynurenine (NFK) is quantified by LCMS and normalized to the L-Tryptophan-(indole-d5) signal. Samples with 0.6% DMSO (0% effect) and a TDO/IDO inhibitor (100% effect) are used as control samples to set the parameters for the non-linear regression necessary for the determination of the half-maximal inhibitory concentration (IC50) for each compound. For each compound concentration the percentage of activity compared to 0% and 100% effect is calculated as average±STDEV (each concentration measured in duplicate). IC50 values and curves are generated with XLfit software (IDBS) using Dose-Response One Site model 203 (four parameter logistic curve model). The calculated IC50 values may fluctuate depending on the daily assay performance. Fluctuations of this kind are known to those skilled in the art. When compounds are measured multiple times, mean values are given.

The target of assay [2] is T3, Recombinant human TDO comprising amino acids 19-407 (Homo sapiens, UniProt P48775).
T3 construct: human TDO comprising amino acids 19-407; hexahistidine (N); made in house; host or cells: E. coli
Put plainly: TDO2 enzymatic assay (NFK quantified by LCMS). The note with it: 15 nM enzyme, 200 μM L-tryptophan, 30 min pre-incubation, pH7; mean if measured multiple times; read-out: hTDO activity (IC50 in nM). In kind it is biochemical. The protocol: 2) Testing Compounds for TDO Inhibitory Activity in a TDO2 Enzymatic Assay:
Recombinant human TDO comprising amino acids 19-407 with a N-terminal hexahistidine tag expressed in E. coli and purified to homogeneity is incubated at a final concentration of 15 nM in assay buffer consisting of 75 mM phosphate buffer at pH7 supplemented with 100 μM ascorbic acid, 50 U/ml Catalase, 0.01% BSA, and 0.01% Tween 20 (protocol modified from Seegers et al, JBS 2014). Example compounds are serially diluted in DMSO, further diluted in phosphate buffer, and added to the reaction mixture at final concentrations ranging from 10 μM to 0.5 nM. The final DMSO concentration is 0.6%. Following a pre-incubation of 30 minutes at RT, the reaction is started by the addition of L-tryptophan at a final concentration of 200 μM in assay buffer. After 30 minutes of incubation at RT, 3 μL of the reaction mixture are transferred to a 384 deep well plate containing 25 μL of deionized water. 100 μl of 200 nM L-Tryptophan-(indole-d5) in cold 100% methanol are added followed by a 10 minutes centrifugation at 3220×g at 4° C. An additional 75 μL of deionized water are then added followed by a 10 minutes centrifugation at 3220×g at 4° C. The product of the reaction N′-Formylkynurenine (NFK) is quantified by LCMS and normalized to the L-Tryptophan-(indole-d5) signal. Samples with 0.6% DMSO (0% effect) and a TDO/IDO inhibitor (100% effect) are used as control samples to set the parameters for the non-linear regression necessary for the determination of the half-maximal inhibitory concentration (IC50) for each compound. For each compound concentration the percentage of activity compared to 0% and 100% effect is calculated as average±STDEV (each concentration measured in duplicate). IC50 values and curves are generated with XLfit software (IDBS) using Dose-Response One Site model 203 (four parameter logistic curve model). The calculated IC50 values may fluctuate depending on the daily assay performance. Fluctuations of this kind are known to those skilled in the art. When compounds are measured multiple times, mean values are given.

What is called IC50 is the midpoint of a concentration-inhibition curve.

T3 sequence (P48775 19-406 limits assumed): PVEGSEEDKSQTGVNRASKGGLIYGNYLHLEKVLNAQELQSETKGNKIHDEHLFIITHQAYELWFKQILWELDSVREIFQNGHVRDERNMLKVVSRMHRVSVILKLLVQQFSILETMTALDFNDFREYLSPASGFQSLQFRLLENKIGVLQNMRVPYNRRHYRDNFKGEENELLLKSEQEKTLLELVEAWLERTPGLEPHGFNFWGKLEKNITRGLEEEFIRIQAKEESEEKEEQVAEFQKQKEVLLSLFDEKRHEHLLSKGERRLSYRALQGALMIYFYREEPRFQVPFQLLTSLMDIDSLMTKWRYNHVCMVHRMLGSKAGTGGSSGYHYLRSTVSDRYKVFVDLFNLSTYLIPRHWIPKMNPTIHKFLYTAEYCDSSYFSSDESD
T1 sequence (P14902 whole entry): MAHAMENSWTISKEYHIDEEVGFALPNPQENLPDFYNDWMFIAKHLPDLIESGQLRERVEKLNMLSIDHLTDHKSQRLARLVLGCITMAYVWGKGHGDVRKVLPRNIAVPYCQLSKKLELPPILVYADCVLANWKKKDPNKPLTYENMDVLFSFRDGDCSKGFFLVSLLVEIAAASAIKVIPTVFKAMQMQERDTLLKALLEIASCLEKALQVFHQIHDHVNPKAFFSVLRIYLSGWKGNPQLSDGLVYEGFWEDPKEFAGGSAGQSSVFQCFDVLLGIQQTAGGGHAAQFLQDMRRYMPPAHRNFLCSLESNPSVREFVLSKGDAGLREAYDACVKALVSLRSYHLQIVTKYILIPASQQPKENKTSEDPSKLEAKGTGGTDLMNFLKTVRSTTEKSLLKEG
T2 sequence (P14902 whole entry): as above

Turning to `OC(c1cn(-c2ccccc2)nn1)c1c(Cl)ccc2cncn12` (racemic) [Example 1, rac-(6-Chloro-imidazo[1,5-a]pyridin-5-yl)-(1-phenyl-1H-[1,2,3]triazol-4-yl)-methanol], the IC50 was 246 nM at IDO1 in SKOV3 cells, 9.6 nM in assay [1] and > 10200 nM in assay [2].

On to `Cc1ccc2cncn2c1C(O)c1cn(-c2ccccc2)nn1` (racemic) [Example 2, rac-(6-Methyl-imidazo[1,5-a]pyridin-5-yl)-(1-phenyl-1H-[1,2,3]triazol-4-yl)-methanol], for which the IC50 was 225 nM at IDO1 in SKOV3 cells, 6.17 nM in assay [1] and > 10200 nM in assay [2].

Take `OC(c1cn(-c2ccccc2)nn1)c1c(C2CC2)ncc2cncn12` (racemic) [Example 3, rac-(6-Cyclopropyl-imidazo[1,5-a]pyrazin-5-yl)-(1-phenyl-1H-[1,2,3]triazol-4-yl)-methanol]: the IC50 was 470 nM on IDO1 in SKOV3 cells, 41 nM in assay [1] and > 10200 nM in assay [2].

Regarding `Cc1c(C(O)c2c(Cl)ccc3cncn23)nnn1-c1ccc(OCCC(C)(C)O)c(Cl)c1` (racemic) [Example 49, rac-4-(2-Chloro-4-{4-[(6-chloro-imidazo[1,5-a]pyridin-5-yl)-hydroxy-methyl]-5-methyl-[1,2,3]triazol-1-yl}-phenoxy)-2-methyl-butan-2-ol], the IC50 at IDO1 in SKOV3 cells came to 10.2 nM; in assay [2], 8360 nM.

On to `Cc1c(C(O)c2c(Cl)ccc3cncn23)nnn1-c1ccc(OCCC(C)(C)O)c(F)c1` (racemic) [Example 50, rac-4-(4-{4-[(6-Chloro-imidazo[1,5-a]pyridin-5-yl)-hydroxy-methyl]-5-methyl-[1,2,3]triazol-1-yl}-2-fluoro-phenoxy)-2-methyl-butan-2-ol], for which the 50% inhibitory concentration (IC50) was 5.41 nM at IDO1 in SKOV3 cells and 8200 nM in assay [2].

Regarding `COc1ccc(-n2nnc(C(O)c3c(Cl)ccc4cncn34)c2Cl)cc1` (racemic) [Example 51, rac-(6-Chloro-imidazo[1,5-a]pyridin-5-yl)-[5-chloro-1-(4-methoxy-phenyl)-1H-[1,2,3]triazol-4-yl]-methanol], the IC50 on IDO1 in SKOV3 cells stood at 145 nM; in assay [2], 7040 nM.

For the compound `Cc1c(C(O)c2c(C3CC3)ncc3cncn23)nnn1-c1ccc(F)cc1F` (racemic) [Example 54, rac-(6-Cyclopropyl-imidazo[1,5-a]pyrazin-5-yl)-[1-(2,4-difluoro-phenyl)-5-methyl-1H-[1,2,3]triazol-4-yl]-methanol], the IC50 on IDO1 in SKOV3 cells is 364 nM; in assay [2], > 10200 nM.

Take `COc1cc(F)c(-n2nnc(C(O)c3c(C4CC4)ncc4cncn34)c2C)cc1F` (racemic) [Example 55, rac-(6-Cyclopropyl-imidazo[1,5-a]pyrazin-5-yl)-[1-(2,5-difluoro-4-methoxy-phenyl)-5-methyl-1H-[1,2,3]triazol-4-yl]-methanol]: the figures for the 50% inhibitory concentration (IC50) (at IDO1 in SKOV3 cells; in assay [2]) were 35 nM and > 10200 nM, respectively.

`Cc1c(C(O)c2c(C3CC3)ncc3cncn23)nnn1-c1ccccc1F` (racemic) [Example 57, rac-(6-Cyclopropyl-imidazo[1,5-a]pyrazin-5-yl)-(1-(2-fluoro-phenyl)-5-methyl-1H-[1,2,3]triazol-4-yl-methanol]: the IC50 at IDO1 in SKOV3 cells is 333 nM; in assay [2], > 10200 nM.

For `COc1ccc(-n2cc([C@H](O)c3c(C4CC4)ncc4cncn34)nn2)cc1Br` [Example 23, (R)-[1-(3-Bromo-4-methoxy-phenyl)-1H-[1,2,3]triazol-4-yl]-(6-cyclopropyl-imidazo[1,5-a]pyrazin-5-yl)-methanol], the results for the IC50 (on IDO1 in SKOV3 cells; in assay [1]) were 51.9 nM and 9.61 nM, respectively.

Regarding `O[C@@H](c1cn(-c2cc(F)c(OCC3(F)COC3)cc2F)nn1)c1c(C2CC2)ncc2cncn12` [Example 52, (R)-(6-Cyclopropyl-imidazo[1,5-a]pyrazin-5-yl)-{1-[2,5-difluoro-4-(3-fluoro-oxetan-3-ylmethoxy)-phenyl]-1H-[1,2,3]triazol-4-yl}-methanol], the IC50 on IDO1 in SKOV3 cells was 18.1 nM; in assay [2] it was > 10200 nM.

As to `O[C@@H](c1cn(-c2cc(F)c(OCC3COC3)cc2F)nn1)c1c(C2CC2)ncc2cncn12` [Example 53, (R)-(6-Cyclopropyl-imidazo[1,5-a]pyrazin-5-yl)-{1-[2,5-difluoro-4-(oxetan-3-ylmethoxy)-phenyl]-1H-[1,2,3]triazol-4-yl}-methanol], the IC50 on IDO1 in SKOV3 cells is 27.4 nM; in assay [2], > 10200 nM.

`CC(C)(O)COc1cc(F)c(-n2cc([C@H](O)c3c(C4CC4)ncc4cncn34)nn2)cc1F` [Example 56, 1-(4-{4-[(R)-(6-Cyclopropyl-imidazo[1,5-a]pyrazin-5-yl)-hydroxy-methyl]-[1,2,3]triazol-1-yl}-2,5-difluoro-phenoxy)-2-methyl-propan-2-ol]: the IC50 on IDO1 in SKOV3 cells was 29.3 nM; in assay [2], > 10200 nM.
